Experimental data from ChEMBL document CHEMBL1201862, “PubChem BioAssay data set” (2004).
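Cells were grown in 96-well plates and exposed to each compound for 48 hours at five concentrations; endpoints were interpolated linearly between bracketing concentrations, or set to the highest concentration if not reached. GI50 marks 50% less growth.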 Activity calls are given as the source filed them. Rule as the data show it: active = GI50 up to about 1.1 µM and inactive = higher.

Columns and labels:
Test in all cases: DTP human tumour cell line panel, 48 h
786-0 = system: 786-0
A549 = system: A549
CAKI-1 = system: CAKI-1
COLO 205 = system: COLO 205
HOP-62 = system: HOP-62
HOP-92 = system: HOP-92
M19-MEL = system: M19-MEL
Malme-3M = system: Malme-3M
NCI-H460 = system: NCI-H460
SK-MEL-28 = system: SK-MEL-28
SK-OV-3 = system: SK-OV-3
SN12C = system: SN12C
SNB-19 = system: SNB-19
SR = system: SR
TK-10 = system: TK-10
U-251 = system: U-251
UACC-257 = system: UACC-257
Hs-578T = system: Hs-578T
MCF7 = system: MCF7
NCI/ADR-RES = system: NCI/ADR-RES

Row | Structure (SMILES) | GI50 (786-0) | GI50 (A549) | GI50 (CAKI-1) | GI50 (COLO 205) | GI50 (HOP-62) | GI50 (HOP-92) | GI50 (M19-MEL) | GI50 (Malme-3M) | GI50 (NCI-H460) | GI50 (SK-MEL-28) | GI50 (SK-OV-3) | GI50 (SN12C) | GI50 (SNB-19) | GI50 (SR) | GI50 (TK-10) | GI50 (U-251) | GI50 (UACC-257) | GI50 (Hs-578T) | GI50 (MCF7) | GI50 (NCI/ADR-RES)
1 | Oc1ccc2c(c1)OCC1(O)Cc3cc(O)c(O)cc3C21 (centres undefined) | 19.5 µM (inactive) | > 57.7 µM (inactive) | 18.1 µM (inactive) | 16.8 µM (inactive) | > 58.1 µM (inactive) | 21.6 µM (inactive) | 29.1 µM (inactive) | 16.9 µM (inactive) | 27.8 µM (inactive) | 17.5 µM (inactive) | 39.9 µM (inactive) | 21.8 µM (inactive) | 28.7 µM (inactive) | 30.8 µM (inactive) | 17.4 µM (inactive) | 18.7 µM (inactive) | 19.9 µM (inactive) |  |  | 
2 | COc1cc2c(c(O)c1O)-c1ccc(OC)c(=O)cc1C(NC(C)=O)CC2 (centres undefined) | 16.6 µM (inactive) | 36.4 µM (inactive) | 78.5 µM (inactive) | 3.87 µM (inactive) | 20.5 µM (inactive) | 4.59 µM (inactive) | 6.98 µM (inactive) | 16.5 µM (inactive) | 25.2 µM (inactive) | 24.8 µM (inactive) | 15 µM (inactive) | 12.8 µM (inactive) | 5.07 µM (inactive) | 5.69 µM (inactive) | 64.3 µM (inactive) | 4.88 µM (inactive) | 30.1 µM (inactive) |  |  | 
3 | CCCC(=O)Oc1ccc(/C=N/NC(N)=S)nc1 | 37 µM (inactive) | > 100 µM (inactive) | > 100 µM (inactive) | > 100 µM (inactive) | > 100 µM (inactive) | > 100 µM (inactive) | > 100 µM (inactive) | > 100 µM (inactive) | > 100 µM (inactive) | > 100 µM (inactive) | > 100 µM (inactive) | > 100 µM (inactive) | > 100 µM (inactive) | 30 µM (inactive) | > 100 µM (inactive) | > 100 µM (inactive) | > 100 µM (inactive) |  |  | 
4 | N#Cc1ccc(Cc2ccccn2)cc1Cl | > 100 µM (inactive) | > 100 µM (inactive) | > 100 µM (inactive) | > 100 µM (inactive) | > 100 µM (inactive) | > 100 µM (inactive) | > 100 µM (inactive) | > 100 µM (inactive) | > 100 µM (inactive) | > 100 µM (inactive) | > 100 µM (inactive) | > 100 µM (inactive) | > 100 µM (inactive) | > 100 µM (inactive) | > 100 µM (inactive) | > 100 µM (inactive) | > 100 µM (inactive) |  |  | 
5 | BrCc1ccc2ccc3ccc(CBr)nc3c2n1 | 2.51 µM (inactive) | 13.3 µM (inactive) | 3.55 µM (inactive) | 1.92 µM (inactive) | 7 µM (inactive) | 2.06 µM (inactive) | 3.86 µM (inactive) |  | 4.23 µM (inactive) | 2.81 µM (inactive) | 3.08 µM (inactive) | 2 µM (inactive) | 12.7 µM (inactive) | 1.87 µM (inactive) | 2.57 µM (inactive) | 5.56 µM (inactive) | 3.18 µM (inactive) | 17.9 µM (inactive) | 1.88 µM (inactive) | 1.86 µM (inactive)
6 | CCCCCCCC(=O)OCC1OC(OC)C(NC(=O)N(CCCl)N=O)C(O)C1O (centres undefined) | 3.92 µM (inactive) | 9.91 µM (inactive) | 9.08 µM (inactive) | 14.7 µM (inactive) | 4.27 µM (inactive) | 1.36 µM (inactive) | 17.9 µM (inactive) | 13.3 µM (inactive) | 3.46 µM (inactive) | 33.3 µM (inactive) | 28.5 µM (inactive) | 7.67 µM (inactive) | 14.5 µM (inactive) | 0.272 µM (active) | 18.5 µM (inactive) | 4.91 µM (inactive) | 16.1 µM (inactive) |  |  | 
7 | COc1ccc(C(=O)C(c2ccc(OCc3ccccc3)cc2)c2ccc(OCc3ccccc3)cc2)cc1 | > 100 µM (inactive) | > 100 µM (inactive) | > 100 µM (inactive) | > 100 µM (inactive) | > 100 µM (inactive) | > 100 µM (inactive) | > 100 µM (inactive) | > 100 µM (inactive) | > 100 µM (inactive) | > 100 µM (inactive) | > 100 µM (inactive) | > 100 µM (inactive) | > 100 µM (inactive) | > 100 µM (inactive) | > 100 µM (inactive) | > 100 µM (inactive) |  |  |  | 
8 | O=C(CC1(O)C(=O)Nc2c(Cl)ccc(Cl)c21)c1ccco1 (centres undefined) | 15.5 µM (inactive) | 23 µM (inactive) | 26.1 µM (inactive) | 17.5 µM (inactive) | 29.6 µM (inactive) | 22.3 µM (inactive) | 2.31 µM (inactive) | 20 µM (inactive) | 20.4 µM (inactive) | 19.5 µM (inactive) | 31.5 µM (inactive) | 17.3 µM (inactive) | 42.3 µM (inactive) | 4.38 µM (inactive) | > 53 µM (inactive) | 22.7 µM (inactive) | 18 µM (inactive) | 26 µM (inactive) | 14.9 µM (inactive) | 23.7 µM (inactive)
9 | O=C1[C@@H]2C3c4ccccc4C([C@@H]2C(=O)N1c1ccccc1)S3(=O)=O | 55.8 µM (inactive) |  |  | > 100 µM (inactive) |  | > 100 µM (inactive) | > 100 µM (inactive) | > 100 µM (inactive) | 31.1 µM (inactive) |  | > 100 µM (inactive) | 61.5 µM (inactive) | 48.8 µM (inactive) | > 100 µM (inactive) | > 100 µM (inactive) | 47.2 µM (inactive) | > 100 µM (inactive) |  |  | 
10 | N#Cc1c(-c2ccccc2)c(-c2ccccc2)cc2c(=O)c3ccc(Cl)cc3[nH]c12 | > 100 µM (inactive) | > 100 µM (inactive) |  | > 100 µM (inactive) | > 100 µM (inactive) | > 100 µM (inactive) | > 100 µM (inactive) | > 100 µM (inactive) | > 100 µM (inactive) | > 100 µM (inactive) | > 100 µM (inactive) | > 100 µM (inactive) | > 100 µM (inactive) | > 100 µM (inactive) | > 100 µM (inactive) | > 100 µM (inactive) | > 100 µM (inactive) |  |  | 
11 | Cc1cc(O)nc(CNC(=O)c2ccc3ccccc3c2)n1 | > 100 µM (inactive) | > 100 µM (inactive) | > 100 µM (inactive) | > 100 µM (inactive) | > 100 µM (inactive) | > 100 µM (inactive) | > 100 µM (inactive) | > 100 µM (inactive) | > 100 µM (inactive) | > 100 µM (inactive) | > 100 µM (inactive) | > 100 µM (inactive) | > 100 µM (inactive) | > 100 µM (inactive) | > 100 µM (inactive) | > 100 µM (inactive) | > 100 µM (inactive) |  |  | 
12 | CCn1c(C)nc([N+](=O)[O-])c1Sc1ncc[nH]1 | > 100 µM (inactive) | > 100 µM (inactive) | 68.1 µM (inactive) | 27.9 µM (inactive) | > 100 µM (inactive) | 25.8 µM (inactive) | 36.8 µM (inactive) | 20.1 µM (inactive) | 66.2 µM (inactive) | 31 µM (inactive) | > 100 µM (inactive) | 37 µM (inactive) | > 100 µM (inactive) | 23.3 µM (inactive) | > 100 µM (inactive) | 44 µM (inactive) | 39.4 µM (inactive) |  |  | 
13 | Nc1ccccc1C(=O)/C=C/c1c(O)ccc2ccccc12 | > 100 µM (inactive) | > 100 µM (inactive) | > 100 µM (inactive) | > 100 µM (inactive) | > 100 µM (inactive) | > 100 µM (inactive) | 19.4 µM (inactive) | > 100 µM (inactive) | > 100 µM (inactive) | > 100 µM (inactive) | > 100 µM (inactive) | 32.7 µM (inactive) | > 100 µM (inactive) | > 100 µM (inactive) | > 100 µM (inactive) | > 100 µM (inactive) | > 100 µM (inactive) |  |  | 
14 | COc1ccc2c(c1)O[C@@H]1c3ccc(OC)cc3OC[C@H]21 | 25.4 µM (inactive) | 29.2 µM (inactive) | 29.6 µM (inactive) |  | 72.8 µM (inactive) | 17.1 µM (inactive) | 31.4 µM (inactive) | 39.2 µM (inactive) | 26.2 µM (inactive) | 40.5 µM (inactive) | 57 µM (inactive) | 55.2 µM (inactive) | 54.3 µM (inactive) | 22.9 µM (inactive) | 35.6 µM (inactive) | 24.2 µM (inactive) | > 10 µM (inactive) |  |  | 
15 | COC(=O)C1C=CCON2CCc3c(n(S(=O)(=O)c4ccccc4)c4ccccc34)C12 (centres undefined) | > 87.1 µM (inactive) | 50.1 µM (inactive) | 57.3 µM (inactive) | 33.5 µM (inactive) | > 39.2 µM (inactive) | > 80.7 µM (inactive) | 40.6 µM (inactive) | > 64.7 µM (inactive) | 52.6 µM (inactive) | > 100 µM (inactive) | > 61.9 µM (inactive) | 60 µM (inactive) | > 46.6 µM (inactive) | 34.1 µM (inactive) | > 78.3 µM (inactive) | 25.2 µM (inactive) | 50.1 µM (inactive) |  |  | 
16 | O=C1CC[C@H](NC(=O)Cc2ccccc2)C(=O)N1 [ANTINEOPLASTON A10] | > 1250 µM (inactive) | > 1250 µM (inactive) | > 1250 µM (inactive) | > 1250 µM (inactive) | > 1250 µM (inactive) |  | > 1250 µM (inactive) | > 1250 µM (inactive) | > 1250 µM (inactive) | > 1250 µM (inactive) | > 1250 µM (inactive) | > 1250 µM (inactive) | > 1250 µM (inactive) | > 1250 µM (inactive) | > 1250 µM (inactive) | > 1250 µM (inactive) | > 1250 µM (inactive) |  |  | 
